Values quoted from earlier work as cited in US20070066580A1, “Novel aldosterone antagonists and uses thereof” (Recordati Ireland Limited, priority 2005, published 2007).

Key:
[1] = severe heart failure (NYHA class IV), plus diuretics, versus placebo plus diuretics; cited from earlier work
[2] = cited from earlier work
MR = target: T1, MR (Homo sapiens, UniProt P08235); settings: cited from earlier work
T1 sequence (P08235 1-984): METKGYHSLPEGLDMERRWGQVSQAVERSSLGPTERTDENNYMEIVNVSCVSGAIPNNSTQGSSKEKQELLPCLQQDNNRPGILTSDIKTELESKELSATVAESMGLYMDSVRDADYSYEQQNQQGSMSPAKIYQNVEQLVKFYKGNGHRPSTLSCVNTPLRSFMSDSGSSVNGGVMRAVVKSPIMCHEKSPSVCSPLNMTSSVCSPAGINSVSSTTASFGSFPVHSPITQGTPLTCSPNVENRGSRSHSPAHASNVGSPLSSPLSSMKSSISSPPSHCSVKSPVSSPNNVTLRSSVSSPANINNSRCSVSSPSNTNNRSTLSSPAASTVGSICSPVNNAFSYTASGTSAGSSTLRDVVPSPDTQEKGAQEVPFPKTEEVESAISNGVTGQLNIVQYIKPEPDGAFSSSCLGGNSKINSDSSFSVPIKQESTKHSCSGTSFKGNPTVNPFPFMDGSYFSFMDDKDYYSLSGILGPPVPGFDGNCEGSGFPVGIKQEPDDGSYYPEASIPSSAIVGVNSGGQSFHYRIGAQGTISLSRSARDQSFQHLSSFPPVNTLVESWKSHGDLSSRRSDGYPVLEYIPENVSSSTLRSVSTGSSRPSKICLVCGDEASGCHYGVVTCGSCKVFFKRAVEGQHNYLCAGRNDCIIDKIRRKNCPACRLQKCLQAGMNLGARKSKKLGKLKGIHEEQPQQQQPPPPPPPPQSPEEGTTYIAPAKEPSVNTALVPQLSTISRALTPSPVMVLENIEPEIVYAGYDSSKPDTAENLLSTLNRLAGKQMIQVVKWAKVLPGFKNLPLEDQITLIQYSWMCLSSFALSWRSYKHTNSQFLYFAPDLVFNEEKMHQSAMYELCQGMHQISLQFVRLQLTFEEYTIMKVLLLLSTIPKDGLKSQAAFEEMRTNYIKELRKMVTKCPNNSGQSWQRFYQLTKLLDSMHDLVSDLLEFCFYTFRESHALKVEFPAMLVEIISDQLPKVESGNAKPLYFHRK

With `CCOC(=O)[C@H](CCc1ccccc1)N[C@@H](C)C(=O)N1CCC[C@H]1C(=O)O` [enalapril] as the compound, how does the “reduction of mortality at one year” value [1] read?
The value was 31%.

Which “potency in vivo as % of spironolactone” value [2] does the source give for `COC(=O)[C@@H]1CC2=CC(=O)CC[C@]2(C)[C@@]23O[C@@H]2C[C@@]2(C)[C@@H](CC[C@@]24CCC(=O)O4)[C@H]13` [eplerenone] here?
Its value is 50-75%.

Which “antimineralocorticoid potency, times more potent than spironolactone” value (MR) does the source give for `C[C@]12C=CC(=O)C=C1[C@@H]1C[C@@H]1[C@H]1[C@@H]3[C@@H]4C[C@@H]4[C@@]4(CCC(=O)O4)[C@@]3(C)CC[C@@H]12` [spirorenone] here?
Its value is “approximately 7.5 times”.

For `C[C@]12CCC(=O)C=C1[C@@H]1C[C@@H]1[C@H]1[C@@H]3[C@@H]4C[C@@H]4[C@@]4(CCC(=O)O4)[C@@]3(C)CC[C@@H]12`, which “antimineralocorticoid potency, times more potent than spironolactone” value (MR) is on record?
Its value is “approximately 7.5 times”.

For `CC(=O)S[C@@H]1CC2=CC(=O)C=C[C@]2(C)[C@H]2CC[C@@]3(C)[C@@H]([C@@H]4C[C@@H]4[C@@]34CCC(=O)O4)[C@H]12` [Mespirenone], which “anti-MR effectiveness compared with spironolactone” value (MR) is on record?
Its value is “about three times higher”.
